Where a name gives a salt, the structure may show the parent alone. Read-outs that look alike come from different tables or passages of the source.
Columns and labels:
cardiac microtissues [1] = test: Ingenuity Pathway Analysis over-representation of differentially expressed genes (activation Z-score); type: cell-based, human; conditions: 48hr high; Group 2
cardiac microtissues [2] = test: Targeted qRT-PCR of ATAD3C, CDH13, IL6, PTX3, SLC7A5, UCHL1 in cardiac microtissues; type: cell-based, human; conditions: Sorafenib 3.74 µM, Sunitinib 3.53 µM, Dasatinib 10.8 µM; for activity at 10.8 µM: Homo sapiens, read-out: % of control
Method: The experiment was performed with three technical replicates across 1-2 independent replicates.

[3] = ref FDA label, cited from earlier work; for Structural cardiotoxin?: FDA label references heart failure or a decrease in left ventricular ejection fraction; for Functional cardiotoxin?: compound annotation
cardiac microtissues [4] = test: Transcriptomic profiling (mRNA-seq) and DESeq2 differential gene expression analysis in cardiac microtissues; conditions: for number of significant differentially expressed genes, 6hr high / number of significant differentially expressed genes, 6hr low / number of significant differentially expressed genes, 48hr high / number of significant differentially expressed genes, 48hr low / number of significant differentially expressed genes, 72hr high / number of significant differentially expressed genes, 72hr low: absolute log2(Fold-Change) > 1, FDR p ≤ 0.05; for number of significant differentially expressed genes, 6hr high / number of significant differentially expressed genes, 48hr high / number of significant differentially expressed genes, 72hr high: high concentration; for number of significant differentially expressed genes, 6hr low / number of significant differentially expressed genes, 48hr low / number of significant differentially expressed genes, 72hr low: low concentration
cardiac microtissues [5] = test: ATP depletion (CellTiter Glo Luminescent Cell Viability Assay) in cardiac microtissues; type: cell-based, human; conditions: the concentration is the IC30 of ATP depletion, or cell death caused
Method: Cellular ATP concentrations were also assessed using the CellTiter Glo® Luminescent Cell Viability Assay as per the manufacturer’s instructions (Promega).

Cc1nc(Nc2ncc(C(=O)Nc3c(C)cccc3Cl)s2)cc(N2CCN(CCO)CC2)n1 [Dasatinib]
activation Z-score: Actin Cytoskeleton Signaling (cardiac microtissues [1]): -2.887
activation Z-score: Actin Nucleation by ARP-WASP Complex (cardiac microtissues [1]): -2.449
activation Z-score: Acute Phase Response Signaling (cardiac microtissues [1]): -2.828
activation Z-score: Adrenomedullin signaling pathway (cardiac microtissues [1]): -0.535
activation Z-score: Apelin Cardiac Fibroblast Signaling Pathway (cardiac microtissues [1]): 2.449
activation Z-score: Apelin Liver Signaling Pathway (cardiac microtissues [1]): -2.449
activation Z-score: Aryl Hydrocarbon Receptor Signaling (cardiac microtissues [1]): -2.333
activation Z-score: Breast Cancer Regulation by Stathmin1 (cardiac microtissues [1]): -3.363
activation Z-score: CLEAR Signaling Pathway (cardiac microtissues [1]): 2.5
activation Z-score: Cardiac Hypertrophy Signaling (Enhanced) (cardiac microtissues [1]): -3.889
activation Z-score: Colorectal Cancer Metastasis Signaling (cardiac microtissues [1]): -3.5
activation Z-score: Cyclins and Cell Cycle Regulation (cardiac microtissues [1]): 1
activation Z-score: ERK5 Signaling (cardiac microtissues [1]): -2.646
activation Z-score: Endothelin-1 Signaling (cardiac microtissues [1]): -1.604
activation Z-score: G-Protein Coupled Receptor Signaling (cardiac microtissues [1]): -1.571
activation Z-score: GP6 Signaling Pathway (cardiac microtissues [1]): -3.742
activation Z-score: Glioblastoma Multiforme Signaling (cardiac microtissues [1]): -2.111
activation Z-score: HGF Signaling (cardiac microtissues [1]): -1.89
activation Z-score: HIF1Î± Signaling (cardiac microtissues [1]): -2.673
activation Z-score: HMGB1 Signaling (cardiac microtissues [1]): -3.3
activation Z-score: Hepatic Fibrosis Signaling Pathway (cardiac microtissues [1]): -6.008
activation Z-score: IL-6 Signaling (cardiac microtissues [1]): -3.3
activation Z-score: IL-8 Signaling (cardiac microtissues [1]): -2.84
activation Z-score: IL-13 Signaling Pathway (cardiac microtissues [1]): -1.897
activation Z-score: IL-15 Production (cardiac microtissues [1]): -1.897
activation Z-score: ILK Signaling (cardiac microtissues [1]): -3.207
activation Z-score: Immunogenic Cell Death Signaling Pathway (cardiac microtissues [1]): -2.828
activation Z-score: Integrin Signaling (cardiac microtissues [1]): -3.357
activation Z-score: Intrinsic Prothrombin Activation Pathway (cardiac microtissues [1]): -2.236
activation Z-score: LXR/RXR Activation (cardiac microtissues [1]): 3.3
activation Z-score: Leukocyte Extravasation Signaling (cardiac microtissues [1]): -1.698
activation Z-score: MIF Regulation of Innate Immunity (cardiac microtissues [1]): -1.633
activation Z-score: MYC Mediated Apoptosis Signaling (cardiac microtissues [1]): -2.449
activation Z-score: Macrophage Alternative Activation Signaling Pathway (cardiac microtissues [1]): -0.728
activation Z-score: Oncostatin M Signaling (cardiac microtissues [1]): -1.342
activation Z-score: Osteoarthritis Pathway (cardiac microtissues [1]): -2.985
activation Z-score: Oxytocin Signaling Pathway (cardiac microtissues [1]): -2.4
activation Z-score: PAK Signaling (cardiac microtissues [1]): -2.449
activation Z-score: PPAR Signaling (cardiac microtissues [1]): 3.742
activation Z-score: Production of Nitric Oxide and Reactive Oxygen Species in Macrophages (cardiac microtissues [1]): -2.646
activation Z-score: Prostanoid Biosynthesis (cardiac microtissues [1]): -1
activation Z-score: Pulmonary Fibrosis Idiopathic Signaling Pathway (cardiac microtissues [1]): -5.947
activation Z-score: Pulmonary Healing Signaling Pathway (cardiac microtissues [1]): -2.668
activation Z-score: RAC Signaling (cardiac microtissues [1]): -2.449
activation Z-score: RHOGDI Signaling (cardiac microtissues [1]): 2.309
activation Z-score: Regulation Of The Epithelial Mesenchymal Transition By Growth Factors Pathway (cardiac microtissues [1]): -3.962
activation Z-score: Regulation of Cellular Mechanics by Calpain Protease (cardiac microtissues [1]): -2
activation Z-score: Regulation of eIF4 and p70S6K Signaling (cardiac microtissues [1]): -2
activation Z-score: Renin-Angiotensin Signaling (cardiac microtissues [1]): -2
activation Z-score: Ribonucleotide Reductase Signaling Pathway (cardiac microtissues [1]): -2.496
activation Z-score: Role of IL-17F in Allergic Inflammatory Airway Diseases (cardiac microtissues [1]): -2
activation Z-score: Role of JAK family kinases in IL-6-type Cytokine Signaling (cardiac microtissues [1]): -2.673
activation Z-score: Role of NFAT in Cardiac Hypertrophy (cardiac microtissues [1]): -2.496
activation Z-score: STAT3 Pathway (cardiac microtissues [1]): -2.496
activation Z-score: Senescence Pathway (cardiac microtissues [1]): -2
activation Z-score: Signaling by Rho Family GTPases (cardiac microtissues [1]): -3.357
activation Z-score: Superpathway of Cholesterol Biosynthesis (cardiac microtissues [1]): 2
activation Z-score: TREM1 Signaling (cardiac microtissues [1]): -2.714
activation Z-score: Type II Diabetes Mellitus Signaling (cardiac microtissues [1]): -2
activation Z-score: White Adipose Tissue Browning Pathway (cardiac microtissues [1]): -2.111
activation Z-score: Wound Healing Signaling Pathway (cardiac microtissues [1]): -5
activity at 10.8 µM (cardiac microtissues [2]; gene ATAD3C, Run 1): 75.7%
activity at 10.8 µM (cardiac microtissues [2]; gene CDH13, Run 1): 46.8%
activity at 10.8 µM (cardiac microtissues [2]; gene CDH13, Run 2): 19.7%
activity at 10.8 µM (cardiac microtissues [2]; gene IL6, Run 1): 10.1%
activity at 10.8 µM (cardiac microtissues [2]; gene PTX3, Run 1): 18.7%
activity at 10.8 µM (cardiac microtissues [2]; gene PTX3, Run 2): 4.94%
activity at 10.8 µM (cardiac microtissues [2]; gene SLC7A5, Run 1): 52.1%
activity at 10.8 µM (cardiac microtissues [2]; gene SLC7A5, Run 2): 26%
activity at 10.8 µM (cardiac microtissues [2]; gene UCHL1, Run 1): 42.1%
activity at 10.8 µM (cardiac microtissues [2]; gene UCHL1, Run 2): 21.3%
2^-ΔΔCt of Individual reps, Treated 1 (cardiac microtissues [2]; gene ATAD3C, Run 1): 0.8222
2^-ΔΔCt of Individual reps, Treated 2 (cardiac microtissues [2]; gene ATAD3C, Run 1): 0.6233
2^-ΔΔCt of Individual reps, Treated 3 (cardiac microtissues [2]; gene ATAD3C, Run 1): 0.828
Average 2^-ΔΔCt, Treated (cardiac microtissues [2]; gene ATAD3C, Run 1): 0.7578
2^-ΔΔCt of Individual reps, Treated 1 (cardiac microtissues [2]; gene CDH13, Run 1): 0.4709
2^-ΔΔCt of Individual reps, Treated 2 (cardiac microtissues [2]; gene CDH13, Run 1): 0.4361
2^-ΔΔCt of Individual reps, Treated 3 (cardiac microtissues [2]; gene CDH13, Run 1): 0.5098
Average 2^-ΔΔCt, Treated (cardiac microtissues [2]; gene CDH13, Run 1): 0.4723
2^-ΔΔCt of Individual reps, Treated 1 (cardiac microtissues [2]; gene CDH13, Run 2): 0.2109
2^-ΔΔCt of Individual reps, Treated 2 (cardiac microtissues [2]; gene CDH13, Run 2): 0.2308
2^-ΔΔCt of Individual reps, Treated 3 (cardiac microtissues [2]; gene CDH13, Run 2): 0.1575
Average 2^-ΔΔCt, Treated (cardiac microtissues [2]; gene CDH13, Run 2): 0.1997
2^-ΔΔCt of Individual reps, Treated 1 (cardiac microtissues [2]; gene IL6, Run 1): 0.1388
2^-ΔΔCt of Individual reps, Treated 2 (cardiac microtissues [2]; gene IL6, Run 1): 0.1078
2^-ΔΔCt of Individual reps, Treated 3 (cardiac microtissues [2]; gene IL6, Run 1): 0.05876
Average 2^-ΔΔCt, Treated (cardiac microtissues [2]; gene IL6, Run 1): 0.1018
2^-ΔΔCt of Individual reps, Treated 1 (cardiac microtissues [2]; gene PTX3, Run 1): 0.2236
2^-ΔΔCt of Individual reps, Treated 2 (cardiac microtissues [2]; gene PTX3, Run 1): 0.2024
2^-ΔΔCt of Individual reps, Treated 3 (cardiac microtissues [2]; gene PTX3, Run 1): 0.143
Average 2^-ΔΔCt, Treated (cardiac microtissues [2]; gene PTX3, Run 1): 0.1897
2^-ΔΔCt of Individual reps, Treated 1 (cardiac microtissues [2]; gene PTX3, Run 2): 0.06731
2^-ΔΔCt of Individual reps, Treated 2 (cardiac microtissues [2]; gene PTX3, Run 2): 0.04708
2^-ΔΔCt of Individual reps, Treated 3 (cardiac microtissues [2]; gene PTX3, Run 2): 0.03383
Average 2^-ΔΔCt, Treated (cardiac microtissues [2]; gene PTX3, Run 2): 0.04941
2^-ΔΔCt of Individual reps, Treated 1 (cardiac microtissues [2]; gene SLC7A5, Run 1): 0.5311
2^-ΔΔCt of Individual reps, Treated 2 (cardiac microtissues [2]; gene SLC7A5, Run 1): 0.5414
2^-ΔΔCt of Individual reps, Treated 3 (cardiac microtissues [2]; gene SLC7A5, Run 1): 0.5079
Average 2^-ΔΔCt, Treated (cardiac microtissues [2]; gene SLC7A5, Run 1): 0.5268
2^-ΔΔCt of Individual reps, Treated 1 (cardiac microtissues [2]; gene SLC7A5, Run 2): 0.3467
2^-ΔΔCt of Individual reps, Treated 2 (cardiac microtissues [2]; gene SLC7A5, Run 2): 0.2554
2^-ΔΔCt of Individual reps, Treated 3 (cardiac microtissues [2]; gene SLC7A5, Run 2): 0.2489
Average 2^-ΔΔCt, Treated (cardiac microtissues [2]; gene SLC7A5, Run 2): 0.2837
2^-ΔΔCt of Individual reps, Treated 1 (cardiac microtissues [2]; gene UCHL1, Run 1): 0.4041
2^-ΔΔCt of Individual reps, Treated 2 (cardiac microtissues [2]; gene UCHL1, Run 1): 0.4271
2^-ΔΔCt of Individual reps, Treated 3 (cardiac microtissues [2]; gene UCHL1, Run 1): 0.4398
Average 2^-ΔΔCt, Treated (cardiac microtissues [2]; gene UCHL1, Run 1): 0.4237
2^-ΔΔCt of Individual reps, Treated 1 (cardiac microtissues [2]; gene UCHL1, Run 2): 0.202
2^-ΔΔCt of Individual reps, Treated 2 (cardiac microtissues [2]; gene UCHL1, Run 2): 0.2889
2^-ΔΔCt of Individual reps, Treated 3 (cardiac microtissues [2]; gene UCHL1, Run 2): 0.1891
Average 2^-ΔΔCt, Treated (cardiac microtissues [2]; gene UCHL1, Run 2): 0.2267
Structural cardiotoxin? [3]: Y
Functional cardiotoxin? [3]: Y
number of significant differentially expressed genes, 6hr high (cardiac microtissues [4]): 108
number of significant differentially expressed genes, 6hr low (cardiac microtissues [4]): 48
number of significant differentially expressed genes, 48hr high (cardiac microtissues [4]): 820
number of significant differentially expressed genes, 48hr low (cardiac microtissues [4]): 637
number of significant differentially expressed genes, 72hr high (cardiac microtissues [4]): 814
number of significant differentially expressed genes, 72hr low (cardiac microtissues [4]): 616

COc1cccc2c1C(=O)c1c(O)c3c(c(O)c1C2=O)C[C@@](O)(C(=O)CO)C[C@@H]3O[C@H]1C[C@H](N)[C@H](O)[C@H](C)O1 [Doxorubicin HCl]
Transcriptomic high concentration (µM) = IC30 of ATP depletion (cardiac microtissues [5]): 0.36 µM
Structural cardiotoxin? [3]: Y
Functional cardiotoxin? [3]: Y
number of significant differentially expressed genes, 6hr high (cardiac microtissues [4]): 17
number of significant differentially expressed genes, 6hr low (cardiac microtissues [4]): 26
number of significant differentially expressed genes, 48hr high (cardiac microtissues [4]): 5
number of significant differentially expressed genes, 48hr low (cardiac microtissues [4]): 5
number of significant differentially expressed genes, 72hr high (cardiac microtissues [4]): 4
number of significant differentially expressed genes, 72hr low (cardiac microtissues [4]): 5
impact on gene expression profiles (cardiac microtissues [4]; cardiac microtissues, all treatments): low impact on gene expression profiles

CS(=O)(=O)CCNCc1ccc(-c2ccc3ncnc(Nc4ccc(OCc5cccc(F)c5)c(Cl)c4)c3c2)o1 [Lapatinib]
Transcriptomic high concentration (µM) = IC30 of ATP depletion (cardiac microtissues [5]): 5.53 µM
Structural cardiotoxin? [3]: Y
Functional cardiotoxin? [3]: Y
number of significant differentially expressed genes, 6hr high (cardiac microtissues [4]): 27
number of significant differentially expressed genes, 6hr low (cardiac microtissues [4]): 17
number of significant differentially expressed genes, 48hr high (cardiac microtissues [4]): 13
number of significant differentially expressed genes, 48hr low (cardiac microtissues [4]): 40
number of significant differentially expressed genes, 72hr high (cardiac microtissues [4]): 29
number of significant differentially expressed genes, 72hr low (cardiac microtissues [4]): 18

Reference: paper PMC11213733, “Computational approaches identify a transcriptomic fingerprint of drug-induced structural cardiotoxicity” (Cell Biology and Toxicology, 2024)
